Test results: patent publication US11471448B2 (priority 2020, dated 2022)

Tested on: rat venous stasis model, LPS-induced ARDS
Assay: Rat venous stasis (Wessler) model after LPS-induced lung injury (ARDS induced thrombosis)
Assay type: in vivo
Settings: 250 mg/kg oral gavage 3, 24, 48, 72 h post LPS instillation; Sprague-Dawley rats; 30 min stasis
Excerpt: This study assessed the efficacy of ABC294640 to reduce the incidence of adverse thromboembolic events in situ in acute respiratory distress syndrome (ARDS) conditions using a rat venous stasis model. This assay is designed to measure thrombotic risks following LPS-induced lung injury. LPS-induced lung injury is one of the most commonly used rodent models for ARDS and was described to mimic the neutrophilic inflammatory response observed in ARDS patients. The mechanism of LPS-induced ARDS is based on damage to endothelial cells and a systemic inflammatory response. […]
Sprague-Dawley rats (male) weighing between 275 and 400 g were used for this study. […] The body weight was recorded before the instillation and 24, 48 and 72 hours post-instillation.
In this study, ARDS was induced by intratracheal instillation of LPS. […] The segment was then excised and its content scored. […]
• 1. Prior LPS or saline instillation, the functional respiratory parameters of all rat was assessed by whole-body plethysmography and SpO2 was evaluated on conscious rat with a collar probe pulse oximeter. […] The respiratory rate, the Penh and the inspiratory/expiratory time measurements was analyzed. • 2. […]
• 5. Rats were evaluated periodically to ensure animal well-being (general behavior and daily body weight). • 6. […] SpO2 and whole-body plethysmography were also evaluated 24, 48 and 72 hours post-instillation. • 8. […]

In the case of `O=C(NCc1ccncc1)C12CC3CC(C1)CC(c1ccc(Cl)cc1)(C3)C2` [ABC294640, 3-(4-chlorophenyl)-adamantane-1-carboxylic acid (pyridin-4-ylmethyl)amide], the “thrombosis (blood clot length, weight and total thrombus score)” value is reported as “reduction of thrombosis”.
